# Experimental data reported in patent publication US7659278B2, “Use of low molecular weight compounds for preparing a medicament useful in treating mutant p53 mediated diseases” (Aprea AB, priority 2002, dated 2010).
# What was measured:
# [1] = tested on: human tumour cell lines with different p53 status (p53 null, wild type p53, mutant p53); experiment: WST-1 growth suppression in cell lines with different p53 status; format: cell-based; conditions: mutant p53 vs p53 null and wild type p53 cell lines
# Experimental: (§1) The degree of WST-1 reduction, which reflects a number of living cells, was measured by microplate reader at λ490 nm according to manufacturer (Roche). The growth suppression was calculated as a difference in absorbance at λ 490 nm between untreated and treated cells and expressed in a percent from untreated control. Growth suppression=100%×(control absorbance−treated absorbance)/control absorbance. […] The experimental set up was as described in FIG. 2A.
# The human cell lines were as follows. p53 null: Saos-2 osteosarcoma, K562 acute myeloid leukemia, and HL60 promyelocytic leukemia Wild type p53 expressing cells: NHF normal human fibroblasts, HeLa cervical carcinoma (carries HPV E6 protein, leading to p53 degradation), U2OS osteosarcoma, and EBV-positive IARC 171 lymphoblastoid cell line. […] In addition, mouse p53 null J3D T-cell lymphoma line was used.
# [2] = tested on: Saos-2-His-273 cell line; experiment: Library screening / WST-1 growth suppression and growth curves, Saos-2-His-273; format: cell-based, human; conditions: for growth suppression: with vs without mutant p53 expression, WST-1
# Experimental: as §1, with “In contrast, the effect of treatment on Saos-2 cells lacking p53 expression was rather minor. […] The degree” for “The degree”, “FIG. 2A. The differences in a viability were statistically significant according to an independent t-test.” for “FIG. 2A.”
# (§2) Saos-2-His-273 cell line stably transfected with construct allowing expression of mutant His-273 p53 in a tetracycline-dependent manner was used for screening (Selivanova et al., 1997). p53 expression was inhibited by incubation of cells with doxycycline (5 μg/ml). Cells were grown in 96-well plates at a density of 3000 cells per well with or without doxycycline and treated with 25 μM of the compounds from the NCI library of low molecular weight (LMW) compounds. After 48 hours of incubation the proliferative cell reagent WST-1 (Roche) was added to the cells. The degree of WST-1 reduction, which reflects cell viability, was measured by microplate reader at λ490 nm according to the manufacturer (Roche).
# as §2, with “1997).” for “1997). p53 expression was inhibited by incubation of cells with doxycycline (5 μg/ml).”, “doxycycline. The treatment was done at a concentration of” for “doxycycline and treated with”, “each chemical” for “the compounds”, “is proportional to the” for “reflects”, “by a” for “by”, “λ 490=n” for “λ490 nm”
# [3] = molecular target: T1, endogenous mutant p53 proteins (Homo sapiens, UniProt P04637, R282W); format: biochemical; conditions: cell extracts from Burkitt lymphoma BL-60 cells
# T1 construct: cellular extracts of human tumor cell lines carrying different p53 mutants as a source for endogenous p53 protein; endogenous in cells; host or cells: human tumour cell lines (e.g. Burkitt lymphoma BL-60; KRC/Y renal carcinoma)
# Experimental: (§3) PAb421 antibody was added to all reaction mixtures. […] Monoclonal antibody PAb421 was added to the reaction mixtures in lanes 2-8; PAb1801 was added to the reaction mixtures in lanes 9-15.
# (§4) The GST-p53 proteins were prepared as described (Selivanova et al., 1997). Band shift assays were performed in binding buffer containing 100 mM HEPES pH 7.5, 50 mM KCl, 1 mg/ml BSA, 0.1% Triton X-100, 2 mM MgC12 and 1 mM DTT essentially as in (Selivanova et al., 1996).
# [4] = molecular target: T2, endogenous mutant p53 proteins (Homo sapiens, UniProt P04637, C176F); format: biochemical; conditions: KRC/Y cell extract
# T2 construct: cellular extracts of human tumor cell lines carrying different p53 mutants as a source for endogenous p53 protein; endogenous in cells; host or cells: human tumour cell lines (e.g. Burkitt lymphoma BL-60; KRC/Y renal carcinoma)
# Experimental: as §3, §4
# [5] = molecular target: T3, GST-His-175 mutant p53 protein (Homo sapiens, UniProt P04637, R175H); experiment: Band shift assay, GST-His-175 mutant p53; format: biochemical
# T3 construct: made in house
# Experimental: as §3, §4
# [6] = tested on: MDM2 and p21 in SW480 colon carcinoma cells (endogenous His-273 mutant p53); experiment: Western blot of MDM2 and p21, SW480; format: cell-based, human
# Experimental: The expression of proteins was analyzed using Western blot. […] FIG. 10C pictures induction of p53 target genes in PRIMA-1-treated SW480 colon carcinoma cells carrying endogenous His-273/Ser-309 mutant p53.
# [7] = tested on: Saos-2 cells lacking p53; experiment: Colony formation assay, Saos-2 lacking p53; format: cell-based, human; conditions: 5 μM, colonies counted after 14 days
# Text: Colonies were stained with Giemsa and counted 14 days after seeding.
# The cells were Giemsa stained and scored for the appearance of colonies after 14 days.
# [8] = Toxicity assessment in SCID mice; format: in vivo
# Experimental: (§5) All animal studies were approved by the local animal ethical committee and animal care was in accordance with institutional guidelines. For toxicity assessment, 12 SCID mice (average weight 25 g) were divided in 4 groups. […] Control animals were injected with PBS. We measured weights of the mice for 1 month after the last injection. […] After 3 days the mice were divided into 4 groups. […] Injections were performed twice daily for 3 days. Tumour volume was measured during 2 months.
# (§6) In the untreated control group, the average tumour volume after 59 days was 555.7±284 mm3 (means±SE, n=3).
# [9] = tested on: Saos-2-His-273 human tumour xenografts; experiment: Anti-tumour activity, Saos-2-His-273 xenograft in SCID mice; format: in vivo; conditions: after 59 days
# Experimental: SCID mice were injected with Saos-2-His-273 cells. […] Tumour volumes were measured once in three days for two months.
# as §5, §6
# [10] = tested on: p53-responsive lacZ reporter in A431 cells (endogenous His-273 mutant p53); experiment: p53-responsive lacZ reporter in A431 cells; format: cell-based, human; conditions: 50 μM for 20 hours
SMILES,growth suppression by p53 status [1],growth suppression [2],restoration of DNA binding of Trp-282 mutant p53 [3],reactivation of Phe-176 mutant DNA binding [4],restoration of specific DNA binding [5],induction of MDM2 and p21 [6],inhibition of colony formation [7] [%],"average weight of mice ([8]; 100 mg/kg i.v. daily for 5 days, after one month of observation) [g]","changes in behavior or weight ([8]; intravenous injections, compared with untreated control)",growth of cells (growth curves) ([2]; absence of mutant p53 expression),growth of cells (growth curves) ([2]; cells expressing mutant p53),average tumour volume ([9]; 20 mg/kg i.v. twice a day for three days) [mm3],average tumour volume ([9]; intratumour 20 mg/kg twice a day for three days) [mm3],average tumour volume ([9]; intravenous 100 mg/kg twice a day for three days) [mm3],lacZ reporter induction [10]
"CCCOCN1C(=O)C=CC1=O [MIRA-1, 1-(propoxymethyl)-maleimide]",suppressed the growth of mutant p53-expressing cells more efficiently then p53 null and wild type p53 containing cells,suppressed the growth of cells expressing mutant p53 but did not affect the growth of cells lacking p53 expression,able to restore the sequence-specific DNA binding of the endogenous Trp-282 mutant p53,not reactivated,able to restore the specific DNA binding of the GST-His-175 mutant p53 protein,induced MDM2 and p21,48,–,–,–,–,–,–,–,–
"O=C1C2CCN(CC2)C1(CO)CO [PRIMA-1, 2,2-bis(hydroxymethyl)-1-azabicyclo[2.2.2]octan-3-one]",suppressed the growth of mutant p53-expressing cells more efficiently then p53 null and wild type p53 containing cells,suppressed the growth of cells expressing mutant p53 but did not affect the growth of cells lacking p53 expression,–,–,–,induced MDM2 and p21,–,20 ± 0.2,did not cause any obvious changes in behavior or weight,only caused a minor reduction in growth rate,completely inhibited growth,53±48.5,5.3±2.7,11.7±8,appearance of lacZ-positive cells
